Values after ≈ are worked out from the molar mass of the structure shown.

Assay [1] deals with Candida albicans. The experiment in a line: Antifungal activity against Candida albicans MTCC 227 assessed as growth inhibition at 50 ug/ml after 48 hr by agar cup diffusion method. In kind it is functional. The conditions noted are these: MTCC 227, 48 h, read-out: DIZ.
In assay [2] the test system is Aspergillus niger. The experiment in a line: Antifungal activity against Aspergillus niger MTCC 1344 assessed as growth inhibition at 50 ug/ml after 48 hr by agar cup diffusion method. In kind it is functional. The conditions noted are these: MTCC 1344, 48 h, read-out: DIZ.
In assay [3] the test system is Saccharomyces cerevisiae. The experiment in a line: Antifungal activity against Saccharomyces cerevisiae MTCC 36 assessed as growth inhibition at 50 ug/ml after 48 hr by agar cup diffusion method. It is filed as functional. As to conditions: MTCC 36, 48 h, read-out: DIZ.
Assay [4] concerns Diutina rugosa. Briefly: Antifungal activity against Candida rugosa NCIM 3462 assessed as growth inhibition at 50 ug/ml after 48 hr by agar cup diffusion method. In kind it is functional. The conditions noted are these: NCIM 3462, 48 h, read-out: DIZ.
Assay [5] concerns MDA-MB-231. The experiment in a line: Cytotoxicity against Homo sapiens (human) MDA-MB-231 cells assessed as cell viability at 5 uM after 48 hr by MTT assay relative to control. In kind it is functional. The conditions noted are these: MDA-MB-231, 48 h, read-out: Activity. Background: Tetrazolium assays rely on reduction of a dye to a coloured formazan, in cell work by metabolically active cells.

Assay [6] relates to MCF7. The experiment in a line: Cytotoxicity against Homo sapiens (human) MCF7 cells assessed as cell viability at 5 uM after 48 hr by MTT assay relative to control. In kind it is functional. As to conditions: MCF7, 48 h, read-out: Activity.
Assay [7] concerns MDA-MB-231. The experiment in a line: Cytotoxicity against Homo sapiens (human) MDA-MB-231 cells assessed as cell viability at 1 uM after 48 hr by MTT assay relative to control. In kind it is functional. As to conditions: MDA-MB-231, 48 h, read-out: Activity.
A further assay relates to Klebsiella pneumoniae. The experiment in a line: Antibacterial activity against Klebsiella pneumoniae assessed as growth inhibition by broth dilution method. In kind it is functional. The conditions noted are these: read-out: MIC. In general terms: Broth dilution looks for growth in wells or tubes with falling amounts of substance.
Assay [8] relates to Saccharomyces cerevisiae. Briefly: Antifungal activity against Saccharomyces cerevisiae MTCC 36 assessed as growth inhibition at 150 ug/ml after 48 hr by agar cup diffusion method. In kind it is functional. As to conditions: MTCC 36, 48 h, read-out: DIZ.
In assay [9] the test system is MDA-MB-231. The experiment in a line: Cytotoxicity against Homo sapiens (human) MDA-MB-231 cells assessed as cell viability after 48 hr by MTT assay. In kind it is functional, cell-based. As to conditions: MDA-MB-231, 48 h.
For assay [10], the system named is MCF7. The experiment in a line: Cytotoxicity against Homo sapiens (human) MCF7 cells assessed as cell viability after 48 hr by MTT assay. The conditions noted are these: MCF7, 48 h. In kind it is functional, cell-based.
In assay [11] the test system is MDA-MB-231. The experiment in a line: Cytotoxicity against Homo sapiens (human) MDA-MB-231 cells assessed as cell viability at 10 uM after 48 hr by MTT assay relative to control. The conditions noted are these: MDA-MB-231, 48 h, read-out: Activity. In kind it is functional.
Assay [12] deals with Candida albicans. The experiment in a line: Antifungal activity against Candida albicans MTCC 227 assessed as growth inhibition at 100 ug/ml after 48 hr by agar cup diffusion method. As to conditions: MTCC 227, 48 h, read-out: DIZ. In kind it is functional.
The subject of the next assay is Bacillus subtilis. Briefly: Antibacterial activity against Bacillus subtilis MTCC 441 assessed as growth inhibition by broth dilution method. In kind it is functional. As to conditions: read-out: MIC.
The test system of assay [13] is Diutina rugosa. Briefly: Antifungal activity against Candida rugosa NCIM 3462 assessed as growth inhibition at 150 ug/ml after 48 hr by agar cup diffusion method. In kind it is functional. As to conditions: NCIM 3462, 48 h, read-out: DIZ.
In assay [14] the test system is Aspergillus niger. The experiment in a line: Antifungal activity against Aspergillus niger MTCC 1344 assessed as growth inhibition at 150 ug/ml after 48 hr by agar cup diffusion method. The conditions noted are these: MTCC 1344, 48 h, read-out: DIZ. It is filed as functional.
Assay [15] concerns MCF7. The experiment in a line: Cytotoxicity against Homo sapiens (human) MCF7 cells assessed as cell viability at 10 uM after 48 hr by MTT assay relative to control. It is filed as functional. The conditions noted are these: MCF7, 48 h, read-out: Activity.
For assay [16], the system named is Candida albicans. The experiment in a line: Antifungal activity against Candida albicans MTCC 227 assessed as growth inhibition at 150 ug/ml after 48 hr by agar cup diffusion method. In kind it is functional. The conditions noted are these: MTCC 227, 48 h, read-out: DIZ.
For assay [17], the system named is Diutina rugosa. The experiment in a line: Antifungal activity against Candida rugosa NCIM 3462 assessed as growth inhibition at 100 ug/ml after 48 hr by agar cup diffusion method. In kind it is functional. As to conditions: NCIM 3462, 48 h, read-out: DIZ.
Assay [18] concerns Aspergillus niger. Briefly: Antifungal activity against Aspergillus niger MTCC 1344 assessed as growth inhibition at 100 ug/ml after 48 hr by agar cup diffusion method. In kind it is functional. As to conditions: MTCC 1344, 48 h, read-out: DIZ.
The next assay relates to Escherichia coli. Briefly: Antibacterial activity against Escherichia coli MTCC 443 assessed as growth inhibition by broth dilution method. The conditions noted are these: read-out: MIC. It is filed as functional.
Assay [19] deals with Saccharomyces cerevisiae. Briefly: Antifungal activity against Saccharomyces cerevisiae MTCC 36 assessed as growth inhibition at 100 ug/ml after 48 hr by agar cup diffusion method. In kind it is functional. As to conditions: MTCC 36, 48 h, read-out: DIZ.
For assay [20], the system named is Staphylococcus epidermidis. Briefly: Antibacterial activity against Staphylococcus epidermidis MTCC 435 assessed as growth inhibition by broth dilution method. It is filed as functional. As to conditions: read-out: MIC.
In another assay the test system is Staphylococcus aureus. The experiment in a line: Antibacterial activity against Staphylococcus aureus MTCC 96 assessed as growth inhibition by broth dilution method. As to conditions: read-out: MIC. It is filed as functional.
A further assay deals with Pseudomonas aeruginosa. Briefly: Antibacterial activity against Pseudomonas aeruginosa MTCC 741 assessed as growth inhibition by broth dilution method. It is filed as functional. The conditions noted are these: read-out: MIC.

In the case of `C[C@@H]1[C@H](O)[C@@H](C)/C=C/C=C/C=C/C=C/C=C/C=C/C=C/[C@H](O[C@@H]2O[C@H](C)[C@@H](O)[C@H](N)[C@@H]2O)C[C@@H]2O[C@](O)(C[C@@H](O)C[C@@H](O)[C@H](O)CC[C@@H](O)C[C@@H](O)CC(=O)O[C@H]1C)C[C@H](O)[C@H]2C(=O)O` [AMPHOTERICIN B], the zone of inhibition at 50 µg/mL in the assay with Candida albicans [1] worked out at 23.5 mm; with Aspergillus niger [2] it was 25 mm; in the assay on Saccharomyces cerevisiae [3], 22 mm; in the assay on Diutina rugosa [4], 21 mm.
Take `COc1cccc2c1C(=O)c1c(O)c3c(c(O)c1C2=O)C[C@@](O)(C(=O)CO)C[C@@H]3O[C@H]1C[C@H](N)[C@H](O)[C@H](C)O1` [DOXORUBICIN]: the viability at 5 µM came to 22.9% in the assay on MDA-MB-231 [5] and 43.1% in the assay on MCF7 [6].
With `C/C(=N\NC(=O)c1snnc1C(F)(F)F)c1ccccn1`, the viability at 1 µM in the assay with MDA-MB-231 [7] turned out to be 41.7%. Further, the MIC (in the assay with Klebsiella pneumoniae; in the assay on Bacillus subtilis; with Escherichia coli; in [20]; with Staphylococcus aureus; in the assay with Pseudomonas aeruginosa) was 150 µg/mL (≈ 476 µM) each time. The zone of inhibition at 150 µg/mL in the assay with Saccharomyces cerevisiae [8], in the assay with Diutina rugosa [13], with Aspergillus niger [14] and in the assay with Candida albicans [16] was 0 mm in each case. Further, the 50% inhibitory concentration (IC50) in the assay on MDA-MB-231 [9] turned out to be 2.74 µg/mL (≈ 8.69 µM); with MCF7 [10], 6.01 µg/mL (≈ 19.1 µM). Also, the viability at 10 µM in the assay on MDA-MB-231 [11] was determined as 25.4%; in the assay on MCF7 [15], 63.6%. Further, the zone of inhibition at 100 µg/mL with Candida albicans [12], in the assay with Diutina rugosa [17], in the assay with Aspergillus niger [18] and with Saccharomyces cerevisiae [19] was 0 mm in each case.
On to `C/C(=N\NC(=O)c1snnc1C(F)(F)F)c1ccc(Br)cc1Br`, for which the minimum inhibitory concentration (MIC) (in the assay on Klebsiella pneumoniae; in the assay on Bacillus subtilis; with Escherichia coli; in [20]; with Staphylococcus aureus; in the assay on Pseudomonas aeruginosa) was 150 µg/mL (≈ 318 µM) in each case. Besides, the zone of inhibition at 150 µg/mL in the assay with Saccharomyces cerevisiae [8] stood at 0 mm; with Diutina rugosa [13], 0 mm; with Aspergillus niger [14], 0 mm; in the assay with Candida albicans [16], 15 mm. The values for the viability at 10 µM with MDA-MB-231 [11] and with MCF7 [15] were 94.7% and 123%, respectively. The zone of inhibition at 100 µg/mL with Candida albicans [12] was 11 mm; with Diutina rugosa [17], 0 mm; with Aspergillus niger [18], 0 mm; with Saccharomyces cerevisiae [19] it was 0 mm.

For orientation: MIC means the lowest concentration that inhibits growth of the organism. For orientation: IC50 means the concentration at which inhibition is half-maximal.

The record behind these values is ChEMBL document CHEMBL3044836, “Synthesis, antimicrobial and cytotoxic activities of novel 4-trifluoromethyl-(1,2,3)-thiadiazolo-5-carboxylic acid hydrazide Schiffs bases” (Med Chem Res, 2013).
